Measurements taken from PMC6081437, “The potency of the broad spectrum bacteriocin, bactofencin A, against staphylococci is highly dependent on primary structure, N-terminal charge and disulphide formation” (Scientific Reports, 2018).
Bridge positions count the residues as written; N and C are the ends. Square brackets hold non-standard residues; d marks the D form. Peptide text beside a SMILES is read from it.

System: S. aureus DPC5246
Assay type: cell-based, Staphylococcus aureus
Conditions: for Activity (Minimum Inhibitory Concentration, MIC): DPC5246, pH 6.8
Procedure, shortened: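 Agar well diffusion assay: peptides in 50 mM sodium phosphate pH 6.8, 1-in-4 dilutions from 1000 µM stock (250 to 0.24 µM) applied to S. aureus DPC5246 indicator plates at 37 °C. MIC is the lowest concentration giving an inhibition zone, in triplicate; concentrations rounded to whole numbers.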

Row | SMILES | Activity (Minimum Inhibitory Concentration, MIC) | activity compared with bactofencin A, in words (S. aureus DPC5246, agar well diffusion)
1 | CSCC[C@@H]1NC(=O)CNC(=O)[C@H]([C@@H](C)O)NC(=O)[C@@H]2CCCN2C(=O)[C@H](CCSC)NC(=O)CNC(=O)[C@@H](CC(N)=O)NC(=O)[C@H](CC(N)=O)NC(=O)[C@H](Cc2ccc(O)cc2)NC(=O)[C@H](C(C)C)NC(=O)[C@H](CCCNC(=N)N)NC(=O)[C@@H](NC(=O)[C@H](CCCNC(=N)N)NC(=O)[C@H](Cc2c[nH]cn2)NC(=O)[C@H](CCCCN)NC(=O)[C@H](CCCCN)NC(=O)[C@H](CCCNC(=N)N)NC(=O)[C@@H](N)CCCCN)CSSC[C@@H](C(=O)O)NC(=O)[C@H](Cc2c[nH]c3ccccc23)NC(=O)[C@H](CCCNC(=N)N)NC(=O)[C@H](Cc2ccc(O)cc2)NC1=O [N12Nd] (H-KRKKHRCRVYN[dN]GMPTGMYRWC-OH; disulfide 7-22; N-terminus assumed) | 4 µM | –
2 | CSCC[C@@H]1NC(=O)CNC(=O)[C@H]([C@@H](C)O)NC(=O)[C@@H]2CCCN2C(=O)[C@H](CCSC)NC(=O)CNC(=O)[C@H](CC(N)=O)NC(=O)[C@H](CC(N)=O)NC(=O)[C@H](Cc2ccc(O)cc2)NC(=O)[C@H](C(C)C)NC(=O)[C@H](CCCNC(=N)N)NC(=O)[C@@H](NC(=O)[C@H](CCCNC(=N)N)NC(=O)[C@H](Cc2c[nH]cn2)NC(=O)[C@H](CCCCN)NC(=O)[C@H](CCCCN)NC(=O)[C@@H](N)CCCNC(=N)N)CSSC[C@@H](C(=O)O)NC(=O)[C@H](Cc2c[nH]c3ccccc23)NC(=O)[C@H](CCCNC(=N)N)NC(=O)[C@H](Cc2ccc(O)cc2)NC1=O [R2-C22] (H-RKKHRCRVYNNGMPTGMYRWC-OH; disulfide 6-21; N-terminus assumed) | 1 µM | no effect on activity
3 | CSCC[C@@H]1NC(=O)CNC(=O)[C@H]([C@@H](C)O)NC(=O)[C@@H]2CCCN2C(=O)[C@H](CCSC)NC(=O)CNC(=O)[C@H](C)NC(=O)[C@H](CC(N)=O)NC(=O)[C@H](Cc2ccc(O)cc2)NC(=O)[C@H](C(C)C)NC(=O)[C@H](CCCNC(=N)N)NC(=O)[C@@H](NC(=O)[C@H](CCCNC(=N)N)NC(=O)[C@H](Cc2c[nH]cn2)NC(=O)[C@H](CCCCN)NC(=O)[C@H](CCCCN)NC(=O)[C@H](CCCNC(=N)N)NC(=O)[C@@H](N)CCCCN)CSSC[C@@H](C(=O)O)NC(=O)[C@H](Cc2c[nH]c3ccccc23)NC(=O)[C@H](CCCNC(=N)N)NC(=O)[C@H](Cc2ccc(O)cc2)NC1=O [N12A] (H-KRKKHRCRVYNAGMPTGMYRWC-OH; disulfide 7-22) | 4 µM | –

Continued, in another order:

Row | Activity (Minimum Inhibitory Concentration, MIC) | SMILES | activity compared with bactofencin A, in words (S. aureus DPC5246, agar well diffusion)
4 | 4 µM | CSCC[C@@H]1NC(=O)CNC(=O)[C@H]([C@@H](C)O)NC(=O)[C@@H]2CCCN2C(=O)[C@H](CCSC)NC(=O)CNC(=O)[C@H](CC(N)=O)NC(=O)[C@H](CC(N)=O)NC(=O)[C@H](Cc2ccc(O)cc2)NC(=O)[C@H](C)NC(=O)[C@H](CCCNC(=N)N)NC(=O)[C@@H](NC(=O)[C@H](CCCNC(=N)N)NC(=O)[C@H](Cc2c[nH]cn2)NC(=O)[C@H](CCCCN)NC(=O)[C@H](CCCCN)NC(=O)[C@H](CCCNC(=N)N)NC(=O)[C@@H](N)CCCCN)CSSC[C@@H](C(=O)O)NC(=O)[C@H](Cc2c[nH]c3ccccc23)NC(=O)[C@H](CCCNC(=N)N)NC(=O)[C@H](Cc2ccc(O)cc2)NC1=O [V9A] (H-KRKKHRCRAYNNGMPTGMYRWC-OH; disulfide 7-22) | –
5 | 16 µM | CSCC[C@@H]1NC(=O)CNC(=O)[C@H]([C@@H](C)O)NC(=O)[C@@H]2CCCN2C(=O)[C@H](CCSC)NC(=O)CNC(=O)[C@H](CC(N)=O)NC(=O)[C@H](CC(N)=O)NC(=O)[C@H](Cc2ccc(O)cc2)NC(=O)[C@H](C(C)C)NC(=O)[C@H](CCCNC(=N)N)NC(=O)[C@H](NC(=O)[C@H](CCCNC(=N)N)NC(=O)[C@H](Cc2c[nH]cn2)NC(=O)[C@H](CCCCN)NC(=O)[C@H](CCCCN)NC(=O)[C@H](CCCNC(=N)N)NC(=O)[C@@H](N)CCCCN)CSSC[C@@H](C(=O)O)NC(=O)[C@H](Cc2c[nH]c3ccccc23)NC(=O)[C@H](CCCNC(=N)N)NC(=O)[C@H](Cc2ccc(O)cc2)NC1=O [C7Cd] (H-KRKKHR[dC]RVYNNGMPTGMYRWC-OH; disulfide 7-22; N-terminus assumed) | –
